From PubChem BioAssay AID2060610 (Molecular Pharmacology Branch, DTP, NCI, 2025)
Where “and” joins values, the source holds several entries; their conditions need not be identical. Equal entries are not always repeated. Each block holds one compound with its values, some of them ahead of it.

System: 616215-338-R-J1-PDC complex spheroids, viability % test/control
Test: Anticancer human tumor 616215-338-R-J1-PDC patient-derived colon adenocarcinoma cell line growth inhibition [CLK]
Settings: for viability, T/C: stronger effect = lower value
Procedure, shortened: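 Patient-derived tumor cells grown as complex spheroids with HUVEC endothelial cells and mesenchymal stem cells, treated with drug combinations. Concentrations descend in half-log steps from near clinical Cmax, or from 10 microM if Cmax unknown.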

[1] = curve of first compound, second compound 0.0316 µM
[2] = curve of first compound, second compound 0.1 µM
[3] = curve of first compound, second compound 0.316 µM
[4] = curve of first compound, second compound 1 µM
[5] = curve of first compound, second compound 3.16 µM
[6] = curve of first compound, second compound 10 µM
[7] = second compound 0.0316 µM, first compound 0.0316 µM
[8] = second compound 0.0316 µM, first compound 0.1 µM
[9] = second compound 0.0316 µM, first compound 0.316 µM
[10] = second compound 0.0316 µM, first compound 1 µM
[11] = second compound 0.0316 µM, first compound 3.16 µM
[12] = second compound 0.0316 µM, first compound 10 µM
[13] = second compound 0.1 µM, first compound 0.0316 µM
[14] = second compound 0.1 µM, first compound 0.1 µM
[15] = second compound 0.1 µM, first compound 0.316 µM
[16] = second compound 0.1 µM, first compound 1 µM
[17] = second compound 0.1 µM, first compound 3.16 µM
[18] = second compound 0.1 µM, first compound 10 µM
[19] = second compound 0.316 µM, first compound 0.0316 µM
[20] = second compound 0.316 µM, first compound 0.1 µM
[21] = second compound 0.316 µM, first compound 0.316 µM
[22] = second compound 0.316 µM, first compound 1 µM
[23] = second compound 0.316 µM, first compound 3.16 µM
[24] = second compound 0.316 µM, first compound 10 µM
[25] = second compound 1 µM, first compound 0.0316 µM
[26] = second compound 1 µM, first compound 0.1 µM
[27] = second compound 1 µM, first compound 0.316 µM
[28] = second compound 1 µM, first compound 1 µM
[29] = second compound 1 µM, first compound 3.16 µM
[30] = second compound 1 µM, first compound 10 µM
[31] = second compound 3.16 µM, first compound 0.0316 µM
[32] = second compound 3.16 µM, first compound 0.1 µM
[33] = second compound 3.16 µM, first compound 0.316 µM
[34] = second compound 3.16 µM, first compound 1 µM
[35] = second compound 3.16 µM, first compound 3.16 µM
[36] = second compound 3.16 µM, first compound 10 µM
[37] = second compound 10 µM, first compound 0.0316 µM
[38] = second compound 10 µM, first compound 0.1 µM
[39] = second compound 10 µM, first compound 0.316 µM
[40] = second compound 10 µM, first compound 1 µM
[41] = second compound 10 µM, first compound 3.16 µM
[42] = second compound 10 µM, first compound 10 µM
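Also: spheroids exposed to agents for 7 days.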
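For viability, T/C in this document: 100% = DMSO vehicle wells.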

Compound: CC(=O)O[C@H]1C(=O)[C@@]2(C)[C@H]([C@H](OC(=O)c3ccccc3)[C@]3(O)C[C@H](OC(=O)[C@H](O)[C@@H](NC(=O)c4ccccc4)c4ccccc4)C(C)=C1C3(C)C)[C@]1(OC(C)=O)CO[C@@H]1C[C@@H]2O + CN1CCN(c2cc(C(=O)Nc3cc4cc(-c5cnn(C)c5)ccc4cn3)ccn2)CC1
IC50 [1]: < 31.6 nM
IC50 [2]: < 31.6 nM
IC50 [3]: < 31.6 nM
IC50 [4]: < 31.6 nM
IC50 [5]: < 31.6 nM
IC50 [6]: < 31.6 nM
viability, T/C [7]: 31.2%
viability, T/C [8]: 21.8%
viability, T/C [9]: 14.7%
viability, T/C [10]: 18%
viability, T/C [11]: 18.6%
viability, T/C [12]: 22.4%
viability, T/C [13]: 31.1%
viability, T/C [14]: 17.9%
viability, T/C [15]: 19.9%
viability, T/C [16]: 16.4%
viability, T/C [17]: 17.4%
viability, T/C [18]: 25.2%
viability, T/C [19]: 21.8%
viability, T/C [20]: 18%
viability, T/C [21]: 19.3%
viability, T/C [22]: 16.1%
viability, T/C [23]: 19.9%
viability, T/C [24]: 20.5%
viability, T/C [25]: 0.09%
viability, T/C [26]: 0.12%
viability, T/C [27]: 3.34%
viability, T/C [28]: 0.08%
viability, T/C [29]: 0.1%
viability, T/C [30]: 3.08%
viability, T/C [31]: 0.05%
viability, T/C [32]: 0.11%
viability, T/C [33]: 0.13%
viability, T/C [34]: 0.1%
viability, T/C [35]: 1.96%
viability, T/C [36]: 2.3%
viability, T/C [37]: 0.06%
viability, T/C [38]: 0.13%
viability, T/C [39]: 0.17%
viability, T/C [40]: 0.16%
viability, T/C [41]: 0.19%
viability, T/C [42]: 1.72%

Compound: CC(C)CC(NC(=O)C(Cc1ccccc1)NC(=O)c1cnccn1)B(O)O (stereo not given)
viability, T/C (compound 0.000949 µM): 109% and 107%
viability, T/C (compound 0.003 µM): 109% and 97.9%
viability, T/C (compound 0.00949 µM): 0.2% and 0.21%
viability, T/C (compound 0.03 µM): 0.18% and 0.25%
viability, T/C (compound 0.0949 µM): 0.12% and 0.23%
viability, T/C (compound 0.3 µM): 0.85% and 0.21%
IC50 (curve of compound): 5.61 nM and 5.28 nM

Compound: CC1(C)CCC(CN2CCN(c3ccc(C(=O)NS(=O)(=O)c4ccc(NCC5CCOCC5)c([N+](=O)[O-])c4)c(Oc4cnc5[nH]ccc5c4)c3)CC2)=C(c2ccc(Cl)cc2)C1 + CN1CCN(c2cc(C(=O)Nc3cc4cc(-c5cnn(C)c5)ccc4cn3)ccn2)CC1
IC50 [1]: 5820 nM
IC50 [2]: 4310 nM
IC50 [3]: < 31.6 nM
IC50 [4]: < 31.6 nM
IC50 [5]: < 31.6 nM
IC50 [6]: < 31.6 nM
viability, T/C [7]: 105%
viability, T/C [8]: 106%
viability, T/C [9]: 102%
viability, T/C [10]: 103%
viability, T/C [11]: 106%
viability, T/C [12]: 1.63%
viability, T/C [13]: 109%
viability, T/C [14]: 118%
viability, T/C [15]: 110%
viability, T/C [16]: 129%
viability, T/C [17]: 67.9%
viability, T/C [18]: 1.54%
viability, T/C [19]: 35.4%
viability, T/C [20]: 31.4%
viability, T/C [21]: 32%
viability, T/C [22]: 26.9%
viability, T/C [23]: 12.7%
viability, T/C [24]: 1.79%
viability, T/C [25]: 0.16%
viability, T/C [26]: 0.22%
viability, T/C [27]: 0.2%
viability, T/C [28]: 0.16%
viability, T/C [29]: 2.45%
viability, T/C [30]: 0.3%
viability, T/C [31]: 0.12%
viability, T/C [32]: 0.14%
viability, T/C [33]: 0.15%
viability, T/C [34]: 0.12%
viability, T/C [35]: 0.11%
viability, T/C [36]: 0.62%
viability, T/C [37]: 0.13%
viability, T/C [38]: 0.14%
viability, T/C [39]: 0.16%
viability, T/C [40]: 0.15%
viability, T/C [41]: 3.51%
viability, T/C [42]: 0.2%

Now from value to compound, other results behind:

IC50 (curve of compound): 19.8 nM and 17.4 nM
Compound: CCc1c2c(nc3ccc(O)cc13)-c1cc3c(c(=O)n1C2)COC(=O)[C@]3(O)CC
viability, T/C (compound 0.00316 µM): 110% and 111%
viability, T/C (compound 0.01 µM): 69.5% and 63.4%
viability, T/C (compound 0.0316 µM): 36.6% and 33.2%
viability, T/C (compound 0.1 µM): 17.5% and 24.2%
viability, T/C (compound 0.316 µM): 11% and 16.1%
viability, T/C (compound 1 µM): 5.51% and 7.45%

IC50 (curve of compound): 6030 nM and 5890 nM
Compound: C=C(F)C(=O)N1CCN(c2nc(OCC3CCCN3C)nc3c2CCN(c2cccc4cccc(Cl)c24)C3)CC1CC#N (stereo not given)
viability, T/C (compound 0.0316 µM): 101% and 104%
viability, T/C (compound 0.1 µM): 99.9% and 107%
viability, T/C (compound 0.316 µM): 96.3% and 110%
viability, T/C (compound 1 µM): 93.6% and 106%
viability, T/C (compound 3.16 µM): 116% and 114%
viability, T/C (compound 10 µM): 9.79% and 0.24%
